Where two headings read alike, the source gives them in different places. Peptide text beside a SMILES is read from it.

For data set [1] the following is noted: in situ brain perfusion assay; cited from earlier work.
The next data set addresses NTSR1 (Homo sapiens, UniProt P30989). Format: binding.
Where [2] appears, read: competition with [3H]-NT on HT29 cells expressing NTSR1.

Sequence of NTSR1 (P30989 whole entry): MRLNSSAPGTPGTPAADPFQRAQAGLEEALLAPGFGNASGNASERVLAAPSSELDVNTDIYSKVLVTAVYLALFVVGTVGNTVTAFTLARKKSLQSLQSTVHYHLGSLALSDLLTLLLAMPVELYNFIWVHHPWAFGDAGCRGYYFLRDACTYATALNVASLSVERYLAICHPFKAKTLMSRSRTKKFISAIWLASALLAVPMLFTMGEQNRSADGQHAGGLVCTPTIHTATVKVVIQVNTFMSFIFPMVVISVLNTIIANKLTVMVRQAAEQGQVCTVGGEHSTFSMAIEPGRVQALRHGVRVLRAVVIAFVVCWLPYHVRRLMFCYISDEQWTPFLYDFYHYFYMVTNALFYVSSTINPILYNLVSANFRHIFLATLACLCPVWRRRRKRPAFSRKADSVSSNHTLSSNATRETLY

“T F F Y G G S R G K R N N F R T E E Y (TFFYGGSRGKRNNFRTEEY) [Angiopep-6]”: in data set [1], the “transport across the BBB relative to Angiopep-1 (250 nM)” value is 38.5%.
By IC50 is commonly meant the concentration needed to halve the response being measured. Read a low IC50 as greater potency in that assay. On to `CC[C@H](C)[C@H](NC(=O)[C@H](Cc1ccc(O)cc1)NC(=O)[C@@H]1CCCN1C(=O)[C@H](CCCNC(=N)N)NC(=O)[C@H](CCCNC(=N)N)NC(=O)[C@H](CCCCN)NC(C)=O)C(=O)N[C@@H](CC(C)C)C(=O)O` [AcLys-NT(8-13)] (Ac-KRRPYIL-OH), for which the 50% inhibitory concentration (IC50) on NTSR1 (setting [2]) worked out at 0.001 µM.
For the molecule `CC[C@H](C)[C@H](NC(=O)[C@@H](Cc1ccc(O)cc1)NC(=O)[C@@H]1CCCN1C(=O)[C@H](CCCNC(=N)N)NC(=O)[C@H](CCCNC(=N)N)NC(=O)C(CCCCNC(=O)CCCCCN1C(=O)CC(SC[C@H](NC(=O)[C@H](Cc2ccc(O)cc2)NC(=O)[C@H](CCC(=O)O)NC(=O)[C@H](CCC(=O)O)NC(=O)[C@@H](NC(=O)[C@H](CCCCN)NC(=O)[C@H](Cc2ccccc2)NC(=O)[C@H](CC(N)=O)NC(=O)[C@H](CC(N)=O)NC(=O)[C@H](CCCNC(=N)N)NC(=O)[C@H](CCCCN)NC(=O)CNC(=O)[C@H](CCCNC(=N)N)NC(=O)[C@H](CO)NC(=O)CNC(=O)CNC(=O)[C@H](Cc2ccc(O)cc2)NC(=O)[C@H](Cc2ccccc2)NC(=O)[C@H](Cc2ccccc2)NC(=O)[C@@H](N)[C@@H](C)O)[C@@H](C)O)C(N)=O)C1=O)NC(C)=O)C(=O)N[C@@H](CC(C)C)C(=O)O` (stereo partly drawn) [Ac-Lys-[D-Tyr^11]NT(8-13)-An2], the IC50 was 5.39 µM against NTSR1 (HT29 cells, [3H]-NT, values in the text (FIGS. 21, 22)) and > 0.1 µM on NTSR1 (setting [2]).
